Source: patent US20070128217A1 (priority 2003, published 2007)

Legend:
[1] = test system: recombinant human anti-SARS-CoV antibody 03-018; format: binding; set-up: Binding of antibody 03-018 to linear peptides of the N protein of SARS-CoV Urbani / Binding of antibody 03-018 to looped/cyclic peptides of the N protein of SARS-CoV Urbani: unit not given here
[2] = test system: antibodies in sera from SARS patients (sera 1a, 1b, 2, 6, 37, 62, London, SARS-yellow, SARS-green); format: binding, human; set-up: Binding of serum 6 to linear peptides of protein X1 of SARS-CoV Urbani / Binding of serum 37 to linear peptides of protein X1 of SARS-CoV Urbani / Binding of serum 6 to looped/cyclic peptide (PEPSCAN-ELISA) / Binding of serum 37 to looped/cyclic peptide (PEPSCAN-ELISA) / Binding of serum 37 to looped/cyclic peptides of protein X1 of SARS-CoV Urbani / Binding of serum 6 to linear peptides of protein X2 / Binding of serum 37 to linear peptides of protein X2 / Binding of serum 37 to looped/cyclic peptides of protein X2 of SARS-CoV Urbani / Binding of serum 6 to linear peptides of protein M of SARS-CoV Urbani / Binding of serum 37 to linear peptides of protein M of SARS-CoV Urbani / Binding of serum 6 to looped/cyclic peptides of protein M of SARS-CoV Urbani / Binding of serum 37 to looped/cyclic peptides of protein M of SARS-CoV Urbani / Binding of serum 6 to linear peptides of protein X3 of SARS-CoV Urbani / Binding of serum 37 to linear peptides of protein X3 of SARS-CoV Urbani / Binding of serum 37 to looped/cyclic peptides of protein X3 of SARS-CoV Urbani / Binding of serum 6 to linear peptides of protein X4 of SARS-CoV Urbani / Binding of serum 37 to linear peptides of protein X4 of SARS-CoV Urbani / Binding of serum 37 to looped/cyclic peptides of protein X4 of SARS-CoV Urbani / Binding of serum 6 to linear peptides of protein X5 of SARS-CoV Urbani / Binding of serum 37 to linear peptides of protein X5 of SARS-CoV Urbani / Binding of serum 37 to looped/cyclic peptides of protein X5 of SARS-CoV Urbani / Binding of serum 6 to linear peptides of protein N of SARS-CoV Urbani / Binding of serum 37 to linear peptides of protein N of SARS-CoV Urbani / Binding of serum 6 to linear peptide (PEPSCAN-ELISA) / Binding of serum 1a to looped/cyclic peptides of protein N of SARS-CoV Urbani / Binding of serum 1b to looped/cyclic peptides of protein N of SARS-CoV Urbani / Binding of serum 2 to looped/cyclic peptides of protein N of SARS-CoV Urbani / Binding of serum 6 to looped/cyclic peptides of protein N of SARS-CoV Urbani / Binding of serum 37 to looped/cyclic peptides of protein N of SARS-CoV Urbani / Binding of serum 62 to looped/cyclic peptides of protein N of SARS-CoV Urbani / Binding of serum London to looped/cyclic peptides of protein N of SARS-CoV Urbani / Binding of serum SARS-green to looped/cyclic peptides of protein N of SARS-CoV Urbani: unit not given here
[3] = test system: rabbit serum obtained by immunizing a rabbit with the SARS-CoV strain Frankfurt 1; format: binding; set-up: Binding of a rabbit serum to linear peptides / Binding of a rabbit serum to looped peptides / Rabbit serum linear peptides / Rabbit serum looped peptides / Binding of a rabbit serum to linear peptides of protein N of SARS-CoV Urbani (Rabbit serum linear peptides) / Binding of a rabbit serum to looped/cyclic peptides of protein N of SARS-CoV Urbani (Rabbit serum looped peptides): unit not given here
[4] = test system: control sera (pooled serum of ten healthy LUMC hospital workers; commercial negative donor pooled serum from the Dutch bloodbank); format: binding, human; set-up: Binding of Control serum LUMC to linear peptides / Binding of Control serum Blood-bank to linear peptides / Binding of Control serum LUMC to looped peptides / Binding of Control Serum Blood-Bank to Looped peptides / Binding of Control serum LUMC to linear peptides of the protein M of SARS-CoV Urbani / Binding of Control serum Blood-bank to linear peptides of the protein M of SARS-CoV Urbani / Binding of Control serum LUMC to looped peptides of the protein M of SARS-CoV Urbani / Binding of Control Serum Blood-Bank to Looped peptides of the protein M of SARS-CoV Urbani: unit not given here

IRQGTDYKHWPQIAQ
0.4: Binding of serum 1a to looped/cyclic peptides of protein N of SARS-CoV Urbani [2] | Binding of serum 2 to looped/cyclic peptides of protein N of SARS-CoV Urbani [2] | Binding of serum London to looped/cyclic peptides of protein N of SARS-CoV Urbani [2] | Binding of serum SARS-yellow to looped/cyclic peptides of protein N of SARS-CoV Urbani [2]
0.3: Binding of serum SARS-green to linear peptides of protein N of SARS-CoV Urbani [2] | Binding of serum SARS-green to looped/cyclic peptides of protein N of SARS-CoV Urbani [2] | Binding of a rabbit serum to looped/cyclic peptides of protein N of SARS-CoV Urbani (Rabbit serum looped peptides) [3]
0.1: Binding of antibody 03-018 to linear peptides of the N protein of SARS-CoV Urbani [1] | Binding of serum 1b to linear peptides of protein N of SARS-CoV Urbani [2] | Binding of a rabbit serum to linear peptides of protein N of SARS-CoV Urbani (Rabbit serum linear peptides) [3]
0.6: Binding of serum 37 to looped/cyclic peptides of protein N of SARS-CoV Urbani [2] | Binding of serum 62 to linear peptides of protein N of SARS-CoV Urbani [2] | Binding of serum 62 to looped/cyclic peptides of protein N of SARS-CoV Urbani [2] | Binding of serum SARS-yellow to linear peptides of protein N of SARS-CoV Urbani [2] | Binding of Control serum LUMC to looped peptides [4]
0.5: Binding of Control Serum Blood-Bank to Looped peptides [4]
0.2: Binding of antibody 03-018 to looped/cyclic peptides of the N protein of SARS-CoV Urbani [1] | Binding of serum 1a to linear peptides of protein N of SARS-CoV Urbani [2] | Binding of serum 1b to looped/cyclic peptides of protein N of SARS-CoV Urbani [2] | Binding of serum 2 to linear peptides of protein N of SARS-CoV Urbani [2] | Binding of serum 6 to linear peptides of protein N of SARS-CoV Urbani [2] | Binding of serum 6 to looped/cyclic peptides of protein N of SARS-CoV Urbani [2]
0.7: Binding of serum 37 to linear peptides of protein N of SARS-CoV Urbani [2] | Binding of Control serum Blood-bank to linear peptides [4] | Binding of Control serum LUMC to linear peptides [4]
0.9: Binding of serum London to linear peptides of protein N of SARS-CoV Urbani [2]

IVWVATEGALNTPKD
0.3: Binding of serum 1a to looped/cyclic peptides of protein N of SARS-CoV Urbani [2] | Binding of serum 2 to looped/cyclic peptides of protein N of SARS-CoV Urbani [2] | Binding of serum 62 to looped/cyclic peptides of protein N of SARS-CoV Urbani [2] | Binding of serum London to looped/cyclic peptides of protein N of SARS-CoV Urbani [2] | Binding of serum SARS-green to linear peptides of protein N of SARS-CoV Urbani [2]
0.9: Binding of serum SARS-green to looped/cyclic peptides of protein N of SARS-CoV Urbani [2]
0.8: Binding of Control serum Blood-bank to linear peptides [4] | Binding of Control serum LUMC to linear peptides [4]
0.6: Binding of serum London to linear peptides of protein N of SARS-CoV Urbani [2] | Binding of serum SARS-yellow to linear peptides of protein N of SARS-CoV Urbani [2]
0.1: Binding of antibody 03-018 to linear peptides of the N protein of SARS-CoV Urbani [1] | Binding of serum 1b to linear peptides of protein N of SARS-CoV Urbani [2] | Binding of serum 6 to looped/cyclic peptides of protein N of SARS-CoV Urbani [2] | Binding of a rabbit serum to linear peptides of protein N of SARS-CoV Urbani (Rabbit serum linear peptides) [3]
0.2: Binding of antibody 03-018 to looped/cyclic peptides of the N protein of SARS-CoV Urbani [1] | Binding of serum 1a to linear peptides of protein N of SARS-CoV Urbani [2] | Binding of serum 1b to looped/cyclic peptides of protein N of SARS-CoV Urbani [2] | Binding of serum 2 to linear peptides of protein N of SARS-CoV Urbani [2] | Binding of serum 6 to linear peptides of protein N of SARS-CoV Urbani [2] | Binding of serum SARS-yellow to looped/cyclic peptides of protein N of SARS-CoV Urbani [2] | Binding of a rabbit serum to looped/cyclic peptides of protein N of SARS-CoV Urbani (Rabbit serum looped peptides) [3]
0.4: Binding of Control Serum Blood-Bank to Looped peptides [4]
0.7: Binding of serum 37 to linear peptides of protein N of SARS-CoV Urbani [2] | Binding of serum 62 to linear peptides of protein N of SARS-CoV Urbani [2]
0.5: Binding of serum 37 to looped/cyclic peptides of protein N of SARS-CoV Urbani [2] | Binding of Control serum LUMC to looped peptides [4]

KEGIVWVATEGALNT
0.5: Binding of serum 62 to looped/cyclic peptides of protein N of SARS-CoV Urbani [2] | Binding of serum SARS-green to linear peptides of protein N of SARS-CoV Urbani [2] | Binding of serum SARS-yellow to looped/cyclic peptides of protein N of SARS-CoV Urbani [2]
0.3: Binding of serum 1a to looped/cyclic peptides of protein N of SARS-CoV Urbani [2] | Binding of serum SARS-green to looped/cyclic peptides of protein N of SARS-CoV Urbani [2]
0.6: Binding of serum 37 to looped/cyclic peptides of protein N of SARS-CoV Urbani [2] | Binding of serum 62 to linear peptides of protein N of SARS-CoV Urbani [2] | Binding of Control Serum Blood-Bank to Looped peptides [4] | Binding of Control serum LUMC to linear peptides [4]
0.7: Binding of serum 37 to linear peptides of protein N of SARS-CoV Urbani [2] | Binding of serum SARS-yellow to linear peptides of protein N of SARS-CoV Urbani [2] | Binding of Control serum Blood-bank to linear peptides [4] | Binding of Control serum LUMC to looped peptides [4]
0.2: Binding of antibody 03-018 to looped/cyclic peptides of the N protein of SARS-CoV Urbani [1] | Binding of serum 1a to linear peptides of protein N of SARS-CoV Urbani [2] | Binding of serum 1b to looped/cyclic peptides of protein N of SARS-CoV Urbani [2] | Binding of serum 2 to linear peptides of protein N of SARS-CoV Urbani [2] | Binding of serum 6 to linear peptides of protein N of SARS-CoV Urbani [2] | Binding of serum 6 to looped/cyclic peptides of protein N of SARS-CoV Urbani [2]
0.1: Binding of antibody 03-018 to linear peptides of the N protein of SARS-CoV Urbani [1] | Binding of serum 1b to linear peptides of protein N of SARS-CoV Urbani [2] | Binding of a rabbit serum to linear peptides of protein N of SARS-CoV Urbani (Rabbit serum linear peptides) [3]
0.4: Binding of serum 2 to looped/cyclic peptides of protein N of SARS-CoV Urbani [2] | Binding of serum London to linear peptides of protein N of SARS-CoV Urbani [2] | Binding of serum London to looped/cyclic peptides of protein N of SARS-CoV Urbani [2] | Binding of a rabbit serum to looped/cyclic peptides of protein N of SARS-CoV Urbani (Rabbit serum looped peptides) [3]

KGQQQQGQTVTKKSA
0.8: Binding of serum 62 to linear peptide (PEPSCAN-ELISA) [2]
0.4: Binding of serum 37 to looped/cyclic peptides of protein N of SARS-CoV Urbani [2] | Binding of serum SARS-green to linear peptide (PEPSCAN-ELISA) [2] | Binding of Control Serum Blood-Bank to Looped peptides [4] | Binding of Control serum LUMC to looped peptides [4]
0.7: Binding of serum 37 to linear peptide (PEPSCAN-ELISA) [2]
0.2: Binding of antibody 03-018 to looped/cyclic peptides of the N protein of SARS-CoV Urbani [1] | Binding of serum 1a to looped/cyclic peptides of protein N of SARS-CoV Urbani [2] | Binding of serum 2 to linear peptide (PEPSCAN-ELISA) [2] | Binding of serum 2 to looped/cyclic peptides of protein N of SARS-CoV Urbani [2] | Binding of a rabbit serum to linear peptides of protein N of SARS-CoV Urbani (Rabbit serum linear peptides) [3]
0.3: Binding of serum 1a to linear peptide (PEPSCAN-ELISA) [2] | Binding of serum 6 to linear peptide (PEPSCAN-ELISA) [2] | Binding of serum 62 to looped/cyclic peptides of protein N of SARS-CoV Urbani [2] | Binding of serum London to looped/cyclic peptides of protein N of SARS-CoV Urbani [2]
0.0: Binding of serum SARS-green to looped/cyclic peptides of protein N of SARS-CoV Urbani [2] | Binding of a rabbit serum to looped/cyclic peptides of protein N of SARS-CoV Urbani (Rabbit serum looped peptides) [3]
0.6: Binding of serum London to linear peptide (PEPSCAN-ELISA) [2] | Binding of serum SARS-yellow to linear peptide (PEPSCAN-ELISA) [2]
0.9: Binding of Control serum LUMC to linear peptides [4]
0.1: Binding of antibody 03-018 to linear peptides of the N protein of SARS-CoV Urbani [1] | Binding of serum 1b to linear peptide (PEPSCAN-ELISA) [2] | Binding of serum 1b to looped/cyclic peptides of protein N of SARS-CoV Urbani [2] | Binding of serum 6 to looped/cyclic peptides of protein N of SARS-CoV Urbani [2] | Binding of serum SARS-yellow to looped/cyclic peptides of protein N of SARS-CoV Urbani [2]
1.0: Binding of Control serum Blood-bank to linear peptides [4]
